One data set deals with NEP (Homo sapiens, UniProt P08473). Put plainly: Wet-lab test of inhibition of NEP. Format: biochemical. Also noted: inhibition rate / quenching efficiency: concentration or dose not given beside the values.
The next data set deals with T1, IDE (Homo sapiens, UniProt P14735).
T1 sequence (P14735 1-1019): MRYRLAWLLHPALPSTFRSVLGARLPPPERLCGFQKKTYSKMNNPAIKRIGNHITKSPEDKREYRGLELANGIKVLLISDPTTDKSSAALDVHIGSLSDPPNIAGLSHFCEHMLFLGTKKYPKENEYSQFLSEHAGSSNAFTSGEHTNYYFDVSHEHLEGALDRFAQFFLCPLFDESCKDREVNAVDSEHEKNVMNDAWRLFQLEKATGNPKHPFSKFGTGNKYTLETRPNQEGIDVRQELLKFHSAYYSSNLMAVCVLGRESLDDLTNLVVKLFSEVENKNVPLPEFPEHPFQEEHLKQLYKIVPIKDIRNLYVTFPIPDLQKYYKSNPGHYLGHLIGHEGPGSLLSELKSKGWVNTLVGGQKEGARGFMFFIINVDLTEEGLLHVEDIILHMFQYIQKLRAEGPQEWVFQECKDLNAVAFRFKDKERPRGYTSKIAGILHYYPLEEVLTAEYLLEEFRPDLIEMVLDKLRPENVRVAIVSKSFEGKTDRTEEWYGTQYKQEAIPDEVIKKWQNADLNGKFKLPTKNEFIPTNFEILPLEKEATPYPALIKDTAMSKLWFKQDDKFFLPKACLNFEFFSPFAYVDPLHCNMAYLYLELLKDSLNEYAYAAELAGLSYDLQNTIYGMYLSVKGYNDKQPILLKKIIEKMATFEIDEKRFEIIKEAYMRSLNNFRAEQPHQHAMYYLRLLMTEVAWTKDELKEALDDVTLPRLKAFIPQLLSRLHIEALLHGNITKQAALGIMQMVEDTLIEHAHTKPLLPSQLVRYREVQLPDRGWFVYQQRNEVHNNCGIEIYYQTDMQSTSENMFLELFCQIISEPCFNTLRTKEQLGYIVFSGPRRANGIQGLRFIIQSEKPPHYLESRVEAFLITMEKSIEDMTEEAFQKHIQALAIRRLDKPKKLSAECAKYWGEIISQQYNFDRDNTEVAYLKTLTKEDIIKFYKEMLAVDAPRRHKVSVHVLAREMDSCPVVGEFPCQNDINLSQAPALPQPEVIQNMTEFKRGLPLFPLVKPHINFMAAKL
The data set is described as follows: Wet-lab test of inhibition of IDE. The settings on record: for inhibition rate / quenching efficiency / IC50: binding to IDE; for IC50: computed value. Format: biochemical.

The conditions of data set [1]: cited from earlier work.
Where [2] appears, read: conclusion from both amiloride analogs.

Where two headings read alike, the source gives them in different places.

Sequence of NEP (P08473 whole entry): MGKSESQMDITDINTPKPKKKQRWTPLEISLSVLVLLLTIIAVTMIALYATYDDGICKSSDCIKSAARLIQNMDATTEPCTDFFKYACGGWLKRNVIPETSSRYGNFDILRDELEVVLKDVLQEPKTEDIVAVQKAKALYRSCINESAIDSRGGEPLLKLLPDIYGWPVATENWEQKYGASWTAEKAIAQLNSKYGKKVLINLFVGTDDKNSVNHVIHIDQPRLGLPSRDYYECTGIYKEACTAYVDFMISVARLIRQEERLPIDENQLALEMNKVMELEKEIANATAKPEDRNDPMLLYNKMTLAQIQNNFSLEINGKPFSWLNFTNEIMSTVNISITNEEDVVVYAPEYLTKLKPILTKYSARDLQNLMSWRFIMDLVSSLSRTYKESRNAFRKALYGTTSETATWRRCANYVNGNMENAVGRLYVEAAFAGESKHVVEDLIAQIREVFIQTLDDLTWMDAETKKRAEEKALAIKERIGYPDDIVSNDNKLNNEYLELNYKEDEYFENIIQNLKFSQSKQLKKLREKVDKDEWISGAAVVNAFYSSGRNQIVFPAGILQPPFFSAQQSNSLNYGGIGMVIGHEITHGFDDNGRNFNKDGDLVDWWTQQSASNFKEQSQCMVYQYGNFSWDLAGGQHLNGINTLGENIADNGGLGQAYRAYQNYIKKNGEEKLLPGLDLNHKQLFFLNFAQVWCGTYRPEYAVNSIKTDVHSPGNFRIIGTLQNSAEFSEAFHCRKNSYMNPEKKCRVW

For the compound `O=C(O)CNC(=O)C(CS)Cc1ccccc1` (racemic) [DL-Thiophan], the inhibition rate at NEP (binding to NEP) was determined as 102.01%.

For the compound `CN(C)c1nc(N)c(C(=O)N=C(N)N)nc1Cl.Cl` [5-(N,N-Dimethyl) amiloride hydrochloride], at NEP (binding to NEP), the inhibition rate turned out to be 80.96% and the quenching efficiency is reported as 54.77%. Moreover, the concentration for half-maximal inhibition (IC50) on NEP (binding to NEP, computed value) turned out to be 829 µM. Further, at IDE, the inhibition rate was found to be 93.57%, the quenching efficiency came to 54.77% and the IC50 came out at 178 µM.

On to `N=C(N)NC(=O)c1nc(Cl)c(N)nc1N` [AMR, Amiloride], for which, on NEP (setting [2]), the “inhibition of NEP (in words)” value is recorded as “weakly inhibits NEP”. The “inhibition of IDE (in words)” value against IDE (setting [2]) is “strongly inhibits IDE”.

With `Cl.N=C(N)NC(=O)c1nc(Cl)c(N)nc1N.O.O` [Amiloride HCl dihydrate], at NEP (binding to NEP), the inhibition rate was found to be 65.21% and the quenching efficiency is listed as -6.64%. Also, at IDE, the inhibition rate was found to be 95.02%, the quenching efficiency is on record as -6.64% and the IC50 is 214 µM.

On to `COc1ccc2c3c1O[C@H]1C[C@@H](O)C=C[C@@]31CCN(C)C2` [GNT, galantamine], for which, in data set [1], the “crosses the blood-brain barrier (BBB)” value was “cross the blood-brain barrier”.

`C/C=C1\[C@H]2C=C(C)C[C@]1(N)c1ccc(=O)[nH]c1C2` [HUP, Huperzine A]: the “crosses the blood-brain barrier (BBB)” value in data set [1] (in vivo) was “cross the blood-brain barrier”.

In the case of `OCCN1C[C@H](O)[C@@H](O)[C@H](O)[C@H]1CO` [MIG, Miglitol], the “crosses the BBB” value in data set [1] (ref not given) is “cannot cross BBB”.

`NC(=O)C1=CN([C@@H]2O[C@H](COP(=O)(O)OP(=O)(O)OC[C@H]3O[C@@H](n4cnc5c(N)ncnc54)[C@H](O)[C@@H]3O)[C@@H](O)[C@H]2O)C=CC1` [NAI, NADH]: the “crosses the BBB” value in data set [1] is on record as “cross the BBB”.

In the case of `Nc1c2c(nc3ccccc13)CCCC2` [THA, tacrine], the “crosses the blood-brain barrier (BBB)” value in data set [1] (in vivo) is “cross the blood-brain barrier”.

With `Cc1c(C)c2c(c(C)c1O)CC[C@@](C)(CCC[C@H](C)CCC[C@H](C)CCCC(C)C)O2` [VIV, Vitamin E], the “crosses the BBB” value in data set [1] is recorded as “cross the BBB”.

In general, IC50 refers to the concentration that inhibits the measured activity by half.

The values above are taken from publication PMC4674063, “Uncovering the Molecular Mechanism of Actions between Pharmaceuticals and Proteins on the AD Network” (PLoS ONE, 2015).
